Source: paper PMC11148772, “Inhibition of protein translational machinery in triple-negative breast cancer as a promising therapeutic strategy” (Cell Reports Medicine, 2024)
Residues, ends and D or L forms follow the SMILES beside them. *: point of attachment. Cbz = O=C(OCc1ccccc1)*

What was measured:
[1] = system: TNBC cells (MDA-MB-231, MDA-MB-468, SUM159); test: Immunoblot assay of cell lysates; assay type: cell-based, human; settings: MG132 10 μM + SU056 1 μM, 15 h, MDA-MB-231 and MDA-MB-468
YB-1 [2] = molecular target: T1, YB-1 (Homo sapiens, UniProt P67809); test: Pulldown assay with biotinylated SU056, MDA-MB-468; assay type: binding; parameters: endogenous in cells; settings: 2 μM, 2 h
Procedure: (§1) Protein pulldown assay was performed using biotinylated SU056. MDA-MB-231 and MDA-MB-468 cells were treated with 2 μM biotinylated SU056 for 2 h. After 2 h of treatment, cells were collected and lysed using M-PER lysis solution (Thermo Scientific, #78503), supplemented with Halt protease and phosphatase inhibitor cocktail (Thermo Scientific, #78440). Protein lysate from Biotinylated SU056 treated cells were treated with RNase (10 μg/mL) for 15 min at 37°C. 600 μg protein was incubated with magnetic conjugate streptavidin bead (CST, #5947) at room temperature on rocker for 30 min. Biotin-streptavidin conjugates were pulled down and washed using a magnetic rack. After three washes, beads were resuspended in 2X SDS sample buffer followed by heating at 90°C–100°C for 5 min. Samples were resolved and probed with anti-YB-1 and anti-RPL11 antibodies as described in immunoblotting. Samples of protein lysates from MDA-MB-231 and MDA-MB-468 without biotinylated SU056 (input), samples from pulldown using only biotin and only streptavidin beads were used as experimental controls.

YB-1 [3] = molecular target: T1, YB-1; test: Pulldown assay with biotinylated SU056, MDA-MB-231; assay type: binding; parameters: endogenous in cells; host or cells: MDA-MB-231; settings: 2 μM, 2 h
Procedure: as §1

Row | Structure (SMILES) | effect on SU056-induced decrease in levels of YB-1 and RPL11 [1] | interaction with YB-1 (pull-down) (YB-1 [2]) | increase of interaction with YB-1 in RNase-treated protein lysates (YB-1 [2]; RNase 10 μg/mL) | interaction with YB-1 (pull-down) (YB-1 [3]) | increase of interaction with YB-1 in RNase-treated protein lysates (YB-1 [3]; RNase 10 μg/mL)
1 | CC(C)C[C@@H](C=O)NC(=O)[C@H](CC(C)C)NC(=O)[C@H](CC(C)C)NC(=O)OCc1ccccc1 [MG132, reference compound] (Cbz-Leu-Leu-Leu-aldehyde) | partially reversed |  |  |  | 
2 | O=C(CCCC[C@@H]1SC[C@@H]2NC(=O)N[C@@H]21)NCCSSCCC(=O)OCCN1C2=C(C(=O)OC2)C(c2cccc(F)c2)c2cc3c(cc21)OCO3 (stereo partly drawn) [biotinylated SU056, 2-(9-(3-fluorophenyl)-8-oxo-6,9-dihydro-[1,3]dioxolo[4,5-g]furo[3,4-b]quinolin-5(8H)-yl)ethyl 3-((2-(5-((3aS,4S,6aR)-2-oxohexahydro-1H-thieno[3,4-day]imidazol-4-yl)pentanamido)ethyl)disulfaneyl)propanoate] |  | physically interacts | 18.76 fold | physically interacts | 3.13 fold
